Assay results published in patent US20020187514A1 (priority 1999, published 2002).

Tests used:
Serotonin, 5HT3 = Serotonin, 5HT3 (Mus musculus, UniProt P23979); assay: biochemical; format: binding
[1] = biological target: Thyrotropin Releasing Hormone, TRH; assay: Thyrotropin Releasing Hormone, TRH; [3H]-(3MeHis2)TRH; format: binding; conditions: reference compound, QA/QC; read-out: Ref Kj
[2] = biological target: Protein Phosphatase, PP2A (Homo sapiens, UniProt P67775); assay: Protein Phosphatase, PP2A (Human); substrate DiFMUP; format: biochemical; conditions: reference compound, QA/QC; read-out: Ref Kj
[3] = biological target: Vasoactive Intestine Peptide, Non-selective; format: binding; conditions: read-out: Ref Kj
Glutamate Transport = assay: Glutamate Transport; [3H]Glutamic Acid; format: biochemical; conditions: read-out: Ref Kj
Thromboxane A2 = biological target: T1, Thromboxane A2 (Homo sapiens, UniProt P21731); assay: Thromboxane A2 (Human); [3H]SQ 29,548; format: binding; conditions: reference compound, QA/QC; read-out: Ref Kj
T1 construct: from human cell lines; endogenous in cells

GABA Transport = format: biochemical; conditions: read-out: Ref Kj
Adenosine, A1 = Adenosine, A1 (UniProt P25099); assay: Adenosine, A1; [3H]CPX; format: binding; conditions: read-out: Ref Kj
[4] = biological target: Inositol Triphosphate, IP3; assay: Inositol Triphosphate, IP3; [3H]IP3; format: binding; conditions: reference compound, QA/QC; read-out: Ref Kj
Glutamate, AMPA Site = assay: Glutamate, AMPA Site; [3H]AMPA; format: binding; conditions: reference compound, QA/QC; read-out: Ref Kj
Purinergic, P2Y = Purinergic, P2Y (Human); [35S]-ATPas; format: binding; conditions: reference compound, QA/QC; read-out: Ref Kj
[5] = biological target: Nicotinic (a-bungarotoxin insensitive); format: binding; conditions: reference compound, QA/QC; read-out: Ref Kj
[6] = biological target: Glutamate, NMDA Agonist Site; assay: Glutamate, NMDA Agonist Site; [3H]CGP 39653; format: binding; conditions: reference compound, QA/QC; read-out: Ref Kj
[7] = biological target: Adenosine Transport (cs + es); assay: Adenosine Transport (cs + es) (Human); [3H]-Adenosine; format: biochemical; conditions: reference compound, QA/QC; read-out: Ref Kj
[8] = biological target: T2, Protein Tyrosine Phosphatase, PTP-LAR-D1 (Homo sapiens, UniProt P10586); assay: Protein Tyrosine Phosphatase, PTP-LAR-D1 (Human); substrate pNPP; format: biochemical; conditions: read-out: Ref Kj
T2 construct: PTP-LAR-D1

[9] = biological target: Protein Tyrosine Phosphatase, PTP-B; assay: Protein Tyrosine Phosphatase, PTP-B (Human); substrate pNPP; format: biochemical; conditions: read-out: Ref Kj
[10] = tested on: Protein Tyrosine Phosphatase, PTP-Cell; assay: Protein Tyrosine Phosphatase, PTP-Cell (Human); substrate pNPP; format: biochemical; conditions: read-out: Ref Kj
[11] = biological target: Protein Tyrosine Phosphatase, PTP-CD45 (Homo sapiens, UniProt P08575); assay: Protein Tyrosine Phosphatase, PTP-CD45 (Human); substrate pNPP; format: biochemical; conditions: read-out: Ref Kj
[12] = biological target: Protein Phosphatase, PP2B (Calcineurin); assay: Protein Phosphatase, PP2B (Calcineurin); substrate pNPP; format: biochemical; conditions: read-out: Ref Kj
Calcium Channel, Type N = format: binding; conditions: read-out: Ref Kj
Estrogen = assay: Estrogen; [125I]3,17B-Estradiol, 16a; format: binding; conditions: reference compound, QA/QC; read-out: Ref Kj
[13] = biological target: Ahenylate Cyclase, Forskolin; assay: Ahenylate Cyclase, Forskolin; [3H]Forskolin; format: binding; conditions: reference compound, QA/QC; read-out: Ref Kj
Dopamine Transporter = Dopamine Transporter (Cavia porcellus, UniProt H0WCX4); assay: biochemical; format: binding, Guinea Pig; conditions: read-out: Kd for the receptor
[14] = biological target: Potassium Channel, Ca2+ Act., VS; assay: Potassium Channel, Ca2+ Act., VS; [125I]Charybdotoxin; format: binding; conditions: reference compound, QA/QC; read-out: Ref Kj
[15] = biological target: Glutamate, Chloride Dependent Site; assay: Glutamate, Chloride Dependent Site; [3H]Glutamic Acid; format: binding; conditions: reference compound, QA/QC; read-out: Ref Kj

Sequence of Adenosine, A1 (P25099 whole entry, looked up): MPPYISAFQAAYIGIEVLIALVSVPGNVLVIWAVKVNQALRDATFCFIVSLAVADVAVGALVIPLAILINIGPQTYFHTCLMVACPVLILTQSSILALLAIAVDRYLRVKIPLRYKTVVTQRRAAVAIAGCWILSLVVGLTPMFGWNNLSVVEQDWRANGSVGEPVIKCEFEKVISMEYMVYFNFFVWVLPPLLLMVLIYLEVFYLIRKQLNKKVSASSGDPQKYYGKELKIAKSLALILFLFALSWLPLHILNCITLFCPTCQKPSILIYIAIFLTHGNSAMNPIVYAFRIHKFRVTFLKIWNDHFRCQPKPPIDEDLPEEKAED
Sequence of Protein Phosphatase, PP2A (P67775 whole entry): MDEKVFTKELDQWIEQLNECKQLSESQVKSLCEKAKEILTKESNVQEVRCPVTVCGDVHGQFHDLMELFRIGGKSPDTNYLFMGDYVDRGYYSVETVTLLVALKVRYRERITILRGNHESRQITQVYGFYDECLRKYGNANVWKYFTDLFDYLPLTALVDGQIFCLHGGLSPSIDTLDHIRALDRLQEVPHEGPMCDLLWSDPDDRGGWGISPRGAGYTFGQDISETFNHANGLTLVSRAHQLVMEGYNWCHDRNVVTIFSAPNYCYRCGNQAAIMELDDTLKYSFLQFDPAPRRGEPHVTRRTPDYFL
Sequence of Serotonin, 5HT3 (P23979 24-489): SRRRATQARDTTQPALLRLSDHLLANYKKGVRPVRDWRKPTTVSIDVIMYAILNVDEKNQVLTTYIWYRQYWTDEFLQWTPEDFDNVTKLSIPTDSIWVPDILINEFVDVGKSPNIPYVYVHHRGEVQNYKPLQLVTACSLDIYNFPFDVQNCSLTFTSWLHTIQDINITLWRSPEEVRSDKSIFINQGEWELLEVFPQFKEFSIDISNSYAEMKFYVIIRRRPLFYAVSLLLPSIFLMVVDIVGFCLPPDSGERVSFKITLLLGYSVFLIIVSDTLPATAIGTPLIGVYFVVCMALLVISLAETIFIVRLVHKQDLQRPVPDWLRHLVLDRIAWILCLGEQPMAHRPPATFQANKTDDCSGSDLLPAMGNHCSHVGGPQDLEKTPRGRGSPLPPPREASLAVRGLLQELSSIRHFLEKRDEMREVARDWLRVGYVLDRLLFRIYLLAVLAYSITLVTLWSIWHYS
Sequence of Dopamine Transporter (H0WCX4 1-619): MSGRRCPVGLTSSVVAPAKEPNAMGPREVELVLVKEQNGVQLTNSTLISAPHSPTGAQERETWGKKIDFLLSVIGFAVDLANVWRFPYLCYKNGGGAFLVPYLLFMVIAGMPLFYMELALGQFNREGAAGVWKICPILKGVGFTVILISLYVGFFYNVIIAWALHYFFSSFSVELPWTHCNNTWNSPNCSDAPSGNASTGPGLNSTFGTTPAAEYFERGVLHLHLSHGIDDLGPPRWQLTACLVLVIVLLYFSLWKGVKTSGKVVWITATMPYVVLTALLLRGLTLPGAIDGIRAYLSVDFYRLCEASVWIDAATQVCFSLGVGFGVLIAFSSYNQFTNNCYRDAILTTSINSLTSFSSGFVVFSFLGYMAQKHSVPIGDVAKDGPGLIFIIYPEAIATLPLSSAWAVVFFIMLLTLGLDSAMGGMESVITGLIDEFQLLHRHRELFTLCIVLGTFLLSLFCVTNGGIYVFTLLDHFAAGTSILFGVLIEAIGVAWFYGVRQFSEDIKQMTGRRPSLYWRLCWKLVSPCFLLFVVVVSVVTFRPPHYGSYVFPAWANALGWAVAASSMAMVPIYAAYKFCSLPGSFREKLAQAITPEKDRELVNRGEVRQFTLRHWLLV
T1 sequence (P21731 whole entry): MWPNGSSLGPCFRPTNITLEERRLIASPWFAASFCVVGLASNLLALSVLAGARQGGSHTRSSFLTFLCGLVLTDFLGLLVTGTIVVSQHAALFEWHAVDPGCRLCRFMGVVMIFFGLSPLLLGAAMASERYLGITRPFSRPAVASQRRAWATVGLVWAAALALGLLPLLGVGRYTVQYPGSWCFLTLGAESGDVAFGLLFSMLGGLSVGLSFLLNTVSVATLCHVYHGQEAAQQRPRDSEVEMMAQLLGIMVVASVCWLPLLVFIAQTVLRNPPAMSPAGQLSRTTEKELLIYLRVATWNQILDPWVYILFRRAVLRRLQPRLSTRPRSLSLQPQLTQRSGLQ
Sequence of Protein Tyrosine Phosphatase, PTP-CD45 (P08575 26-1306): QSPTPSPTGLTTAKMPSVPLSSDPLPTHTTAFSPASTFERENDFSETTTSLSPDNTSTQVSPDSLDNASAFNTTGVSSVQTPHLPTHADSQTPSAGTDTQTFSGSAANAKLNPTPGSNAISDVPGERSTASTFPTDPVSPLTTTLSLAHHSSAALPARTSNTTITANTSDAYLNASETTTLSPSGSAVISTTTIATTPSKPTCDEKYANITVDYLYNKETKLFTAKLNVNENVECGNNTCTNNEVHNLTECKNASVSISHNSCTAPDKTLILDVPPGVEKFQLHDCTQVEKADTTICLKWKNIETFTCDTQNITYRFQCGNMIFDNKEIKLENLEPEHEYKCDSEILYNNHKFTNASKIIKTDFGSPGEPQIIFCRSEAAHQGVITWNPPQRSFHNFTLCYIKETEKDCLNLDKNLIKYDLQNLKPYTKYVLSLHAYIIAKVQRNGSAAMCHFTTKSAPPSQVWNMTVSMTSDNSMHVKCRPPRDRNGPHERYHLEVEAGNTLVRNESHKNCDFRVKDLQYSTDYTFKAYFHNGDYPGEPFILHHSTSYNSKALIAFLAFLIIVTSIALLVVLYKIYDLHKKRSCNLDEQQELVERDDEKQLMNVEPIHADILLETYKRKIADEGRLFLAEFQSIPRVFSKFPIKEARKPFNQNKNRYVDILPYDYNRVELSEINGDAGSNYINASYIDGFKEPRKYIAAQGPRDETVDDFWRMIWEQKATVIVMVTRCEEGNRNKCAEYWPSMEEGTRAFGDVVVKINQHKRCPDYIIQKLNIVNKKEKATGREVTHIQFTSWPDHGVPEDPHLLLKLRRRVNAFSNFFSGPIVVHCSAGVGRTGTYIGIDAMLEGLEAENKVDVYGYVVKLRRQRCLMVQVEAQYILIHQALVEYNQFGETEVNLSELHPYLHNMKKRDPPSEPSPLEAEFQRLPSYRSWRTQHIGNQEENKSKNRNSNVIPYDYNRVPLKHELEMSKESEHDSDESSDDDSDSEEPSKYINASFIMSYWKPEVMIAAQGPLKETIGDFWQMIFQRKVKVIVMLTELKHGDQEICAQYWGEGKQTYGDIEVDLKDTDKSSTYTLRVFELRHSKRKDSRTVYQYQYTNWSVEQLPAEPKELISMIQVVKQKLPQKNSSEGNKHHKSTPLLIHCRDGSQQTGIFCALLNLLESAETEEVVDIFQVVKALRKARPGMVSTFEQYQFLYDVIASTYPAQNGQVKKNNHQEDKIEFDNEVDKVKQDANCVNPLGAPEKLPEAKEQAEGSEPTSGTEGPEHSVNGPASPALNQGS
T2 sequence (P10586 1352-1607): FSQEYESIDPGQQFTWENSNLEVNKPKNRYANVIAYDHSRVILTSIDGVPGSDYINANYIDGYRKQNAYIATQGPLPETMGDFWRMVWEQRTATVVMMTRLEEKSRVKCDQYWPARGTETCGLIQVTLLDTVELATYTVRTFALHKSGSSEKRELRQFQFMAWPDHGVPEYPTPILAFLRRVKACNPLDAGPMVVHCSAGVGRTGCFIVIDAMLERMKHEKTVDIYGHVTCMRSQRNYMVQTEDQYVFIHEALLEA

CN1[C@@H]2CC[C@H]1C[C@@H](OC(=O)c1cc(Cl)cc(Cl)c1)C2 [MDL 72222]
Ki (Serotonin, 5HT3): 8.3 nM

(3MeHis2) TRH
Ki [1]: 175 nM

Calyculin
Ki [2]: 0.722 nM

VIP
Ki [3]: 1.9 nM

N[C@H](CC(=O)O)C(=O)O [D-Aspartic Acid]
Ki (Glutamate Transport): 6540 nM

CCCCC[C@@H](O)/C=C/[C@H]1C[C@H]2C[C@@H]([C@@H]1C/C=C\CCCC(=O)O)C2(C)C [Pinane-thromboxane A2]
Ki (Thromboxane A2): 30.3 nM

O=C(O)C1CCCNC1 (racemic) [(+/−) Nipecotic acid]
Ki (GABA Transport): 13300 nM

Nc1nc(Cl)nc2c1ncn2[C@@H]1O[C@H](CO)[C@@H](O)[C@H]1O [2-Chloroadenosine (2-CADO), 2-Chloroadenosine]
Ki (Adenosine, A1): 58.7 nM

O=P(O)(O)O[C@@H]1[C@H](O)[C@H](O)[C@@H](OP(=O)(O)O)[C@H](OP(=O)(O)O)[C@H]1O [IP3]
Ki [4]: 15.3 nM

Cc1o[nH]c(=O)c1CC(N)C(=O)O (racemic) [(+/−)AMPA HBr]
Ki (Glutamate, AMPA Site): 15.2 nM

Nc1ncnc2c1ncn2[C@@H]1O[C@H](COP(=O)(O)OP(O)(O)=S)[C@@H](O)[C@H]1O [ADPbS, Adenosine b-thio-d]
Ki (Purinergic, P2Y): 2120 nM

Clc1ccc([C@@H]2C[C@H]3CC[C@@H]2N3)cn1 (racemic) [(+/−) epibatidine]
Ki [5]: 0.0591 nM

CN[C@H](CC(=O)O)C(=O)O [NMDA]
Ki [6]: 13100 nM

O=[N+]([O-])c1ccc(CSc2ncnc3c2ncn3[C@@H]2O[C@H](CO)[C@@H](O)[C@H]2O)cc1 [NBTI]
Ki [7]: 0.331 nM

Ammonium Molybdate
Ki [8]: 117 nM
Ki [9]: 313 nM
Ki [10]: 41.3 nM
Ki [11]: 30.9 nM
Ki [12]: 90500 nM

w-Conotoxin GVIA
Ki (Calcium Channel, Type N): 0.0124 nM

C=C[C@@]1(C)CC(=O)[C@]2(O)[C@@]3(C)[C@@H](O)CCC(C)(C)[C@@H]3[C@H](O)[C@H](OC(C)=O)[C@@]2(C)O1 [Forskolin]
Ki [13]: 33.8 nM

COC(=O)[C@H]1[C@@H](c2ccc(F)cc2)C[C@@H]2CC[C@H]1N2C [[^3H]-WIN 35-428]
Kd (Dopamine Transporter): 28 nM

Charybdotoxin
Ki [14]: 0.204 nM

N[C@@H](CCC(=O)O)C(=O)O [L-Glutamic acid]
Ki [15]: 379 nM
